Like-named read-outs stand apart in the source and are kept apart here.
Legend:
[1] = test system: Oscillatoria perornata; assay: Rapid bioassay screening for selective algicides (LOEC, LCIC); assay type: cell-based; conditions: rapid screening; for MIC: read-out: LCIC (lowest-complete-inhibition concentration), Oscillatoria perornata; for minimal effective concentration: read-out: LOEC (lowest-observed-effect concentration), Oscillatoria perornata
Description: (§1) These were screened in the laboratory by the method of Schrader et al. (K. K. Schrader, M. Q. de Regt, C. S. Tucker and S. O. Duke, A rapid bioassay for selective algicides. Weed Technol. (1997), vol. 11, pp. 767-774) for algicidal activity.
(§2) The anthraquinone derivatives were screened for selective toxicity towards Oscillatoria perornata, previously isolated from a Mississippi catfish pond, using the method of Schrader et al. (1997). The green alga Selenastrum capricornutum (obtained from the United States Environmental Protection Agency, Corvallis, Oreg.) was used as the representative green algal species in the bioassay since it is a common species found in southeastern United States catfish ponds. Absorbance readings were graphed, and graphs were used to determine the LOEC (lowest-observed-effect concentration) and the LCIC (lowest-complete-inhibition concentration) for each anthraquinone analog. In addition, a 96-hour 50% inhibition concentration (IC50) was determined for DNA1-19-1 and DNA2-59-1 by using the method described by Schrader et al. (1998b). Stock solutions of DNA1-19-1 and DNA2-59-1 were prepared so that final concentrations screened for 96-hour IC50 determinations were as follows: 1) 0, 0.01, 0.033, 0.1, 0.333, 1.0, 3.3, and 10.0 μM DNA1-19-1 for both O. perornata and S. capricornutum; 2) 0, 0.003, 0.01, 0.033, 0.1, 0.333, 1.0, and 3.333 μM DNA2-59-1 for O. perornata; and 3) 0, 0.1, 0.333, 1.0, 3.333, 10.0, 33.333, and 100.0 μM DNA2-59-1 for S. capricornutum. Estimation of the IC50 was determined by plotting 96-hour absorbance readings against logarithmic dilution values of the anthraquinone analogs. The screening results of the anthraquinone derivatives and commercially available analogs of anthraquinone are presented in Tables 1 and 2, respectively. The results in Table 1 reveal that DNA1-19-1 and DNA2-59-1 are the most promising analogs since these two compounds had the lowest LOEC and LCIC values for O. perornata (10 nM and 100 nM, respectively). Based upon IC50 results in Table 3, DNA2-59-1 appears to be more toxic and selective towards O. perornata than DNA1-19-1.
as §2, with “(A rapid bioassay for selective algicides. Weed Technol. (1997), vol. 11, pp. 767-774).” for “(1997).”, “(K. K. Schradar, M. Q. de Regt, P. D. Tidwell, C. S. Tucker and S. O. Duke, Selective growth inhibition of the musty-odor producing cyanobacterium Oscillatoria cf. chalybea by natural compounds. Bull. Environ. Contam. Toxicol. (1998a), vol.60, pp. 651-658).” for “(1998b).”, “The screening results of the anthraquinone derivatives and commercially available analogs of anthraquinone are presented in Tables 1 and 2, respectively. The results in Table 1 reveal that DNA1-19-1 and DNA2-59-1 are the most promising analogs since these two compounds had the lowest LOEC and LCIC values for O. perornata (10 nM and 100 nM, respectively). Based upon IC50 results in Table 3, DNA2-59-1 appears to be more toxic and selective towards O. perornata than DNA1-19-1.” left out

[2] = test system: Selenastrum capricornutum; assay: as above; assay type: cell-based; conditions: rapid screening
Description: as §1, §2
as §2, with “(A rapid bioassay for selective algicides. Weed Technol. (1997), vol. 11, pp. 767-774).” for “(1997).”, “(K. K. Schradar, M. Q. de Regt, P. D. Tidwell, C. S. Tucker and S. O. Duke, Selective growth inhibition of the musty-odor producing cyanobacterium Oscillatoria cf. chalybea by natural compounds. Bull. Environ. Contam. Toxicol. (1998a), vol.60, pp. 651-658).” for “(1998b).”, “The screening results of the anthraquinone derivatives and commercially available analogs of anthraquinone are presented in Tables 1 and 2, respectively. The results in Table 1 reveal that DNA1-19-1 and DNA2-59-1 are the most promising analogs since these two compounds had the lowest LOEC and LCIC values for O. perornata (10 nM and 100 nM, respectively). Based upon IC50 results in Table 3, DNA2-59-1 appears to be more toxic and selective towards O. perornata than DNA1-19-1.” left out

[3] = test system: Oscillatoria perornata; assay: 96-hour IC50 determination; assay type: cell-based; conditions: for IC50: 96-hour 50% inhibition concentration; for selective toxicity towards O. perornata compared to S. capricornutum (result in words): based on laboratory screening and IC50 results
Method: (§3) The green alga Selenastrum capricornutum (obtained from the United States Environmental Protection Agency, Corvallis, Oreg.) was used as the representative green algal species in the bioassay since it is a common species found in southeastern United States catfish ponds. […] In addition, a 96-hour 50% inhibition concentration (IC50) was determined for DNA1-19-1 and DNA2-59-1 by using the method described by Schrader et al. (1998b). Stock solutions of DNA1-19-1 and DNA2-59-1 were prepared so that final concentrations screened for 96-hour IC50 determinations were as follows: 1) 0, 0.01, 0.033, 0.1, 0.333, 1.0, 3.3, and 10.0 μM DNA1-19-1 for both O. perornata and S. capricornutum; 2) 0, 0.003, 0.01, 0.033, 0.1, 0.333, 1.0, and 3.333 μM DNA2-59-1 for O. perornata; and 3) 0, 0.1, 0.333, 1.0, 3.333, 10.0, 33.333, and 100.0 μM DNA2-59-1 for S. capricornutum. Estimation of the IC50 was determined by plotting 96-hour absorbance readings against logarithmic dilution values of the anthraquinone analogs.
(§4) The green alga Selenastrum capricornutum (obtained from the United States Environmental Protection Agency, Corvallis, Oreg.) was used as the representative green algal species in the bioassay since it is a common species found in southeastern United States catfish ponds. […] Stock solutions of DNA1-19-1 and DNA2-59-1 were prepared so that final concentrations screened for 96-hour IC50 determinations were as follows: 1) 0, 0.01, 0.033, 0.1, 0.333, 1.0, 3.3, and 10.0 μM DNA1-19-1 for both O. perornata and S. capricornutum; 2) 0, 0.003, 0.01, 0.033, 0.1, 0.333, 1.0, and 3.333 μM DNA2-59-1 for O. perornata; and 3) 0, 0.1, 0.333, 1.0, 3.333, 10.0, 33.333, and 100.0 μM DNA2-59-1 for S. capricornutum. Estimation of the IC50 was determined by plotting 96-hour absorbance readings against logarithmic dilution values of the anthraquinone analogs.

[4] = test system: Selenastrum capricornutum; assay: 96-hour IC50 determination; assay type: cell-based; conditions: 96-hour 50% inhibition concentration, read-out: IC50, Selanastrum capricornutum
Method: as §3, §4

[5] = Solubility in water; assay type: physicochemical

CCN(CC)CCCC(C)NCc1ccc2c(c1)C(=O)c1ccccc1C2=O.O=P(O)(O)O.O=P(O)(O)O (stereo not shown) [DNA1-19-1, 2-[methylamino-N-(1′-methyl-4′-N,N-diethylaminobutyl)]-9,10-anthraquinone diphosphate]
MIC [1]: 100 nM | minimal effective concentration [1]: 10 nM | LCIC (lowest-complete-inhibition concentration), Selenastrum capricornutum [2]: 10,000 nM | LOEC (lowest-observed-effect concentration), Selenastrum capricornutum [2]: 10,000 nM | IC50 [3]: 63 nM | selective toxicity towards O. perornata compared to S. capricornutum (result in words) [3]: very selectively toxic | IC50 [4]: 5.01 µM | solubility in water [5]: soluble in water

CC(C)NCc1ccc2c(c1)C(=O)c1ccccc1C2=O [DNA2-59-1, 2-[methylamino-N-(1′-methylethyl)]-9,10-anthraquinone monophosphate]
MIC ([1]; Planktothrix perornata): 100 nM | minimal effective concentration ([1]; Planktothrix perornata): 10 nM | MIC ([2]; Selenastrum capricornutum, read-out: LCIC (lowest-complete-inhibition concentration), Selenastrum capricornutum): 100 µM | minimal effective concentration ([2]; Selenastrum capricornutum, read-out: LOEC (lowest-observed-effect concentration), Selenastrum capricornutum): 10 µM | IC50 ([3]; Planktothrix perornata): 6.3 nM | selective toxicity towards O. perornata compared to S. capricornutum (result in words) [3]: very selectively toxic | IC50 ([4]; Selenastrum capricornutum): 5.62 µM | solubility in water [5]: soluble in water

From patent US6949250B2, “Selective algaecides for control of cyanochloronta” (The United States of America as represented by the …, priority 2002, dated 2005)
